These results are taken from patent US20250051338A1, “TYK2 DEGRADERS AND USES THEREOF” (Kymera Therapeutics, Inc., priority 2021, published 2025).

Holding throughout (type): cell-based
In assay [1] the target is T1, TYK2 (Homo sapiens, UniProt P29597). In words: TYK2 degradation MSD assay in EBV-B cells. More on the design: endogenous in cells; host or cells: EBV-B cells. Put shortly: (§1)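 Compound-driven TYK2 loss is measured with a Meso Scale Discovery sandwich assay on whole-cell lysates. Cells are incubated 4 to 24 hours at 37° C with nine 1:3-diluted doses topping at 1 to 10 μM, and DC50 values derive from four-parameter curve fitting.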

Assay [2] addresses T1, TYK2. In words: TYK2 degradation MSD assay in OCI-LY10 cells. Details: endogenous in cells; host or cells: EBV-B cells. As to conditions: 4 to 24 hours incubation, read-out: TYK2 MSD DC50 rating in OCI-LY10. An outline of the steps: as §1
Assay [3] concerns the target T1, TYK2. In words: TYK2 degradation MSD assay in human PBMC cells. More on the design: endogenous in cells; host or cells: human PBMC. The settings on record: 4 to 24 hours incubation, read-out: TYK2 MSD DC50 rating in human PBMC. An outline of the steps:
as §1

Where [4] appears, read: 4 to 24 hours incubation, read-out: TYK2 MSD DC50 rating in EBV-B.

T1 sequence (P29597 whole entry): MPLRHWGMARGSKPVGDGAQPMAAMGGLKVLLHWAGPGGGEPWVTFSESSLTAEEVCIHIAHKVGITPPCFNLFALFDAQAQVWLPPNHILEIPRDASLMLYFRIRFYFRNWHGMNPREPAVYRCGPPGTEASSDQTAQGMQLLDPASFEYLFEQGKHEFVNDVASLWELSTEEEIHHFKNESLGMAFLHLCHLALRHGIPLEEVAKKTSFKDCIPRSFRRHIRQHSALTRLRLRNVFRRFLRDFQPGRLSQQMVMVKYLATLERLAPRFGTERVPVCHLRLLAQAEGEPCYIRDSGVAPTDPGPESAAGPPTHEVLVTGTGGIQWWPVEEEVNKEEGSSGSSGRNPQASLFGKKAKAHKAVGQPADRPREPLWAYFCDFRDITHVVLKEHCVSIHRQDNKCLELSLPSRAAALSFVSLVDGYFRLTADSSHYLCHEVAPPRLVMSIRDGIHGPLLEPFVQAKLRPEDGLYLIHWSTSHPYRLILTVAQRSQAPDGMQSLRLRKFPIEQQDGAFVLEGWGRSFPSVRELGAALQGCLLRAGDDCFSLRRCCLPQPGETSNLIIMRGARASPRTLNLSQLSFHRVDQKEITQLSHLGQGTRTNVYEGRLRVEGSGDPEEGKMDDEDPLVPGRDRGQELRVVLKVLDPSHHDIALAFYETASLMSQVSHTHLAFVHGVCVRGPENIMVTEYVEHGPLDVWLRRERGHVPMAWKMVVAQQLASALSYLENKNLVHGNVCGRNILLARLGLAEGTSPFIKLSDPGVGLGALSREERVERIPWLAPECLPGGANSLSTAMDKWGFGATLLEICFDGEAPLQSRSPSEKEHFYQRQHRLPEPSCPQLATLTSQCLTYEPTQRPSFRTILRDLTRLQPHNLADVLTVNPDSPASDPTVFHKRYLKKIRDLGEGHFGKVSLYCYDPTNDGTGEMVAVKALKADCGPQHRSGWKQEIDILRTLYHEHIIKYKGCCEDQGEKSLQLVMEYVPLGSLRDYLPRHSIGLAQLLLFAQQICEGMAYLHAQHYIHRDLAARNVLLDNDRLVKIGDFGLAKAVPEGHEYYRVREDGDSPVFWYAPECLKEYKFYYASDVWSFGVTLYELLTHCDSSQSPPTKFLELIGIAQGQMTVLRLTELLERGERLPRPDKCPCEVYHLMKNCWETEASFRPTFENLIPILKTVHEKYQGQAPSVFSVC

Regarding `CNc1cc(C2CCN(C(=O)CCCCCCCc3ccc4c(c3)n(C)c(=O)n4C3CCC(=O)NC3=O)CC2)nn2c(C(=O)N[C@@H]3C[C@@H]3F)cnc12` (stereo partly drawn) [Example K302], the half-maximal degradation concentration (DC50) in assay [1] (setting [4]), in assay [2] and in assay [3] was more than 0.1 µM throughout.
For `CNc1cc(-c2ccc(C(=O)NCCCCCCCCc3cccc4c3n(C)c(=O)n4C3CCC(=O)NC3=O)cc2)nn2c(C(=O)N[C@@H]3C[C@@H]3F)cnc12` (stereo partly drawn) [Example K303], the DC50 in assay [1] (setting [4]), in assay [2] and in assay [3] was more than 0.1 µM in each case.
Take `CNc1cc(C2CCCN(C(=O)CCCCCCCc3ccc4c(c3)n(C)c(=O)n4C3CCC(=O)NC3=O)C2)nn2c(C(=O)N[C@@H]3C[C@@H]3F)cnc12` (stereo partly drawn) [Example K304]: the DC50 in assay [1] (setting [4]), in assay [2] and in assay [3] was more than 0.1 µM each time.
As to `CNc1cc(-c2cccc(C(=O)NCCCCc3cccc4c3n(C)c(=O)n4C3CCC(=O)NC3=O)c2)nn2c(C(=O)N[C@@H]3C[C@@H]3F)cnc12` (stereo partly drawn) [Example K305], the half-maximal degradation concentration (DC50) in assay [1] (setting [4]), in assay [2] and in assay [3] was more than 0.1 µM in each case.
As for `CNc1cc(-c2cccc(C(=O)NCCCCCCc3ccc4c(c3)n(C)c(=O)n4C3CCC(=O)NC3=O)c2)nn2c(C(=O)N[C@@H]3C[C@@H]3F)cnc12` (stereo partly drawn) [Example K306], the DC50 in assay [1] (setting [4]), in assay [2] and in assay [3] was more than 0.1 µM in each case.
With `CNc1cc(-c2cccc(C(=O)NCCCCc3ccc4c(c3)n(C)c(=O)n4C3CCC(=O)NC3=O)c2)nn2c(C(=O)N[C@@H]3C[C@@H]3F)cnc12` (stereo partly drawn) [Example K307], the DC50 in assay [1] (setting [4]), in assay [2] and in assay [3] was more than 0.1 µM throughout.
With `CNc1cc(-c2cccc(C(=O)NCCCCCCc3cccc4c3n(C)c(=O)n4C3CCC(=O)NC3=O)c2)nn2c(C(=O)N[C@@H]3C[C@@H]3F)cnc12` (stereo partly drawn) [Example K308], the DC50 in assay [1] (setting [4]), in assay [2] and in assay [3] was more than 0.1 µM each time.
Take `CNc1cc(-c2cccc(C(=O)NCCCCCCCCc3ccc4c(c3)n(C)c(=O)n4C3CCC(=O)NC3=O)c2)nn2c(C(=O)NC3C[C@@H]3F)cnc12` (stereo partly drawn) [Example K309]: the half-maximal degradation concentration (DC50) in assay [1] (setting [4]), in assay [2] and in assay [3] was more than 0.1 µM throughout.
In the case of `CNc1cc(-c2cccc(C(=O)NCCCCCCCCc3cccc4c3n(C)c(=O)n4C3CCC(=O)NC3=O)c2)nn2c(C(=O)N[C@@H]3C[C@@H]3F)cnc12` (stereo partly drawn) [Example K310], the 50% degradation concentration (DC50) in assay [1] (setting [4]), in assay [2] and in assay [3] was more than 0.1 µM in each case.
In the case of `CNc1cc(-c2cnn(C3CCN(C(=O)NCCCCCCc4ccc5c(c4)n(C)c(=O)n5C4CCC(=O)NC4=O)CC3)c2)nn2c(C(=O)N[C@@H]3C[C@@H]3F)cnc12` (stereo partly drawn) [Example K311], the 50% degradation concentration (DC50) in assay [1] (setting [4]), in assay [2] and in assay [3] was more than 0.1 µM in each case.
Consider `CNc1cc(-c2cnn(C3CCN(C(=O)NCCCCCCc4cccc5c4n(C)c(=O)n5C4CCC(=O)NC4=O)CC3)c2)nn2c(C(=O)N[C@@H]3C[C@@H]3F)cnc12` (stereo partly drawn) [Example K312], for which the DC50 in assay [1] (setting [4]), in assay [2] and in assay [3] was more than 0.1 µM in each case.
In the case of `CNc1cc(-c2cnn(C3CCN(C(=O)NCCCCCCCCc4cccc5c4n(C)c(=O)n5C4CCC(=O)NC4=O)CC3)c2)nn2c(C(=O)N[C@@H]3C[C@@H]3F)cnc12` (stereo partly drawn) [Example K313], the results for the half-maximal degradation concentration (DC50) in assay [1] (setting [4]), in assay [2] and in assay [3] were more than 0.1 µM, more than 0.1 µM and 0.001 to 0.01 µM, respectively.
In the case of `CNc1cc(-c2cnn(C3CN(C(=O)NCCCCc4ccc5c(c4)n(C)c(=O)n5C4CCC(=O)NC4=O)C3)c2)nn2c(C(=O)N[C@@H]3C[C@@H]3F)cnc12` (stereo partly drawn) [Example K314], the 50% degradation concentration (DC50) in assay [1] (setting [4]), in assay [2] and in assay [3] was more than 0.1 µM in each case.
As to `CNc1cc(-c2cnn(C3CN(C(=O)NCCCCCCc4ccc5c(c4)n(C)c(=O)n5C4CCC(=O)NC4=O)C3)c2)nn2c(C(=O)N[C@@H]3C[C@@H]3F)cnc12` (stereo partly drawn) [Example K315], the DC50 in assay [1] (setting [4]), in assay [2] and in assay [3] was more than 0.1 µM each time.
Turning to `CNc1cc(-c2cnn(C3CN(C(=O)NCCCCc4cccc5c4n(C)c(=O)n5C4CCC(=O)NC4=O)C3)c2)nn2c(C(=O)N[C@@H]3C[C@@H]3F)cnc12` (stereo partly drawn) [Example K316], the DC50 in assay [1] (setting [4]), in assay [2] and in assay [3] was more than 0.1 µM in each case.
In the case of `CNc1cc(-c2cnn(C3CN(C(=O)NCCCCCCc4cccc5c4n(C)c(=O)n5C4CCC(=O)NC4=O)C3)c2)nn2c(C(=O)N[C@@H]3C[C@@H]3F)cnc12` (stereo partly drawn) [Example K317], the half-maximal degradation concentration (DC50) in assay [1] (setting [4]), in assay [2] and in assay [3] was more than 0.1 µM in each case.
As to `CNc1cc(-c2cnn(C3CN(C(=O)NCCCCCCCCc4ccc5c(c4)n(C)c(=O)n5C4CCC(=O)NC4=O)C3)c2)nn2c(C(=O)NC3C[C@@H]3F)cnc12` (stereo partly drawn) [Example K318], the DC50 in assay [1] (setting [4]), in assay [2] and in assay [3] was more than 0.1 µM each time.
As to `CNc1cc(-c2cnn(C3CN(C(=O)NCCCCCCCCc4cccc5c4n(C)c(=O)n5C4CCC(=O)NC4=O)C3)c2)nn2c(C(=O)N[C@@H]3C[C@@H]3F)cnc12` (stereo partly drawn) [Example K319], the 50% degradation concentration (DC50) in assay [1] (setting [4]), in assay [2] and in assay [3] was more than 0.1 µM in each case.
Consider `CNc1cc(Nc2cccn(-c3ccc(C(=O)NCCCCc4ccc5c(c4)n(C)c(=O)n5C4CCC(=O)NC4=O)cn3)c2=O)nn2c(C(N)=O)cnc12` (stereo not drawn) [Example K320], for which the DC50 in assay [1] (setting [4]), in assay [2] and in assay [3] was more than 0.1 µM in each case.
Regarding `CNc1cc(Nc2cccn(-c3ccc(C(=O)NCCCCc4ccc5c(c4)n(C)c(=O)n5C4CCC(=O)NC4=O)cn3)c2=O)nn2c(C(=O)NC3CCC3)cnc12` (stereo not drawn) [Example K321], the half-maximal degradation concentration (DC50) in assay [1] (setting [4]), in assay [2] and in assay [3] was more than 0.1 µM each time.
Regarding `CNc1cc(Nc2cccn(-c3ccc(C(=O)NCCCCc4ccc5c(c4)n(C)c(=O)n5C4CCC(=O)NC4=O)cn3)c2=O)nn2c(C(=O)NC3CC3)cnc12` (stereo not drawn) [Example K322], the half-maximal degradation concentration (DC50) in assay [1] (setting [4]), in assay [2] and in assay [3] was more than 0.1 µM in each case.
On to `Cn1c(=O)n(C2CCC(=O)NC2=O)c2ccc(CCCCNC(=O)c3ccc(-c4ccc5ncc(C(=O)N[C@@H]6C[C@@H]6F)n5n4)cc3)cc21` (stereo partly drawn) [Example K324], for which the DC50 in assay [1] (setting [4]), in assay [2] and in assay [3] was more than 0.1 µM throughout.
With `Cn1c(=O)n(C2CCC(=O)NC2=O)c2ccc(CCCCNC(=O)c3ccc(-n4cccc(Nc5ccc6ncc(C(=O)N[C@@H]7C[C@@H]7F)n6n5)c4=O)nc3)cc21` (stereo partly drawn) [Example K325], the half-maximal degradation concentration (DC50) in assay [1] (setting [4]), in assay [2] and in assay [3] was more than 0.1 µM throughout.
As for `Cn1c(=O)n(C2CCC(=O)NC2=O)c2ccc(CCCCNC(=O)c3ccccc3Nc3ccc4ncc(C(=O)N[C@@H]5C[C@@H]5F)n4n3)cc21` (stereo partly drawn) [Example K326], the DC50 in assay [1] (setting [4]), in assay [2] and in assay [3] was more than 0.1 µM throughout.
For the compound `Cn1c(=O)n(C2CCC(=O)NC2=O)c2ccc(CCCCC(=O)N3CCC(n4cc(-c5ccc6ncc(C(=O)N[C@@H]7C[C@@H]7F)n6n5)cn4)CC3)cc21` (stereo partly drawn) [Example K327], the DC50 in assay [1] (setting [4]), in assay [2] and in assay [3] was more than 0.1 µM in each case.
As for `Cn1c(=O)n(C2CCC(=O)NC2=O)c2ccc(CCCCNC(=O)c3cccc(Nc4ccc5ncc(C(=O)N[C@@H]6C[C@@H]6F)n5n4)c3)cc21` (stereo partly drawn) [Example K328], the half-maximal degradation concentration (DC50) in assay [1] (read-out: TYK2 MSD DC50 rating in EBV-B, 4 to 24 hours incubation) is more than 0.1 µM; in assay [2], more than 0.1 µM; in assay [3] it was more than 0.1 µM.
Turning to `CNc1cc(Nc2cccn(C3CCN(C(=O)NCCCCc4ccc5c(c4)n(C)c(=O)n5C4CCC(=O)NC4=O)CC3)c2=O)nc2c(C(=O)N[C@@H]3C[C@@H]3F)cnn12` (stereo partly drawn) [Example K330], the DC50 in assay [1] (setting [4]), in assay [2] and in assay [3] was more than 0.1 µM each time.
For the compound `CNc1cc(Nc2cccn(-c3ccc(C(=O)N4CCC(CC#Cc5cccc6c5n(C)c(=O)n6C5CCC(=O)NC5=O)CC4)cn3)c2=O)nn2c(C(=O)N[C@@H]3C[C@@H]3F)cnc12` (stereo partly drawn) [Example K331], the values for the DC50 in assay [1] (setting [4]), in assay [2] and in assay [3] were more than 0.1 µM, more than 0.1 µM and less than 0.001 µM, respectively.
`Cn1c(=O)n(C2CCC(=O)NC2=O)c2ccc(CN3CCC(CNc4cc(Nc5cccn(-c6ccccn6)c5=O)nn5c(C(=O)N[C@@H]6C[C@@H]6F)cnc45)CC3)cc21` (stereo partly drawn) [Example K360]: the 50% degradation concentration (DC50) in assay [1] (setting [4]), in assay [2] and in assay [3] was more than 0.1 µM in each case.
For `CNc1cc(-c2cnn(C3CCC(CN(C)C4CCN(c5ccc6c(c5)n(C)c(=O)n6C5CCC(=O)NC5=O)CC4)CC3)c2)nn2c(C(=O)N[C@@H]3C[C@@H]3F)cnc12` (stereo partly drawn) [Example K361], the DC50 in assay [1] (setting [4]), in assay [2] and in assay [3] was more than 0.1 µM in each case.
Consider `CNc1cc(-c2cnn(C3CCC(CN4CC5(CCN(c6cccc7c6n(C)c(=O)n7C6CCC(=O)NC6=O)CC5)C4)CC3)c2)nn2c(C(=O)NC3C[C@@H]3F)cnc12` (stereo partly drawn) [Example K362], for which the DC50 in assay [1] (setting [4]) was more than 0.1 µM; in assay [2], more than 0.1 µM; in assay [3], less than 0.001 µM.
For the compound `CNc1cc(-c2cnn(C3CCC(CN4CC5(CCN(c6ccc7c(c6)n(C)c(=O)n7C6CCC(=O)NC6=O)CC5)C4)CC3)c2)nn2c(C(=O)N[C@@H]3C[C@@H]3F)cnc12` (stereo partly drawn) [Example K363], the DC50 in assay [1] (setting [4]) was more than 0.1 µM; in assay [2], more than 0.1 µM; in assay [3], less than 0.001 µM.
